Measurements reported in US20090082271A1, “AGENTS THAT REDUCE APOE-INDUCED IMPAIRMENT OF MITOCHONDRIA AND METHODS OF USE THEREOF” (priority 2005, published 2009).
Entries after “also recorded” stand apart in the source; their conditions may differ.

How the values were obtained:
[1] = system: differentiated PC12 cells; experiment: Time-lapse fluorescence recording of mitochondrial motility and morphology in neurites of differentiated PC12 cells (dsRed2-Mito); settings: for mitochondrial motility increased: nimodipine 5 μM and AP5 50 μM together (both antagonists), with different forms of apoE; for reduction of percentage of motile mitochondria in response to neuronal activation: apoE 7.5 μg/ml 24 h, then repetitive depolarizations with KCl
[2] = system: rat primary cortical neurons
[3] = system: Neuro-2a cells; experiment: MTT cell survival assay of Neuro-2a cells transiently transfected with apoE4 cDNA constructs; format: cell-based, mouse; settings: expressed by transient transfection; 48 h after transfection; vs WT apoE4 / apoE4(1-272)
Procedure: Cell Culture and Transfection. […] ApoE4 expression levels were determined by anti-apoE western blotting of cell lysates and media. […] Thus, the results are not due to overexpression.
Cell Survival. […] Cell survival was estimated with an MTT colorimetric assay (52) 48 h after transfection.

[4] = system: rat primary hippocampal neurons; format: cell-based; settings: apoE 7.5 μg/ml, 24 h
From the text: FIGS. 12A and 12B. […] Scale bar=5 μm.

[5] = system: PC12 cells stably expressing various forms of apoE; experiment: Mitochondrial dynamics in differentiated PC12 cells stably expressing various forms of apoE; format: cell-based, rat; settings: endogenous (stably expressed) apoE, ~200 pg apoE per μg cellular protein; vs control
[6] = system: primary cortical neurons; experiment: Number, occupancy and size of mitochondria in dendrites of primary cortical neurons; format: cell-based, rat; settings: vs apoE3-treated cells or controls
[7] = repetitive depolarization with KCl 90 mM

NC(CCCP(=O)(O)O)C(=O)O (stereo not drawn) [AP5, 2-amino-5-phosphonovalerate]
mitochondrial motility increased ([1]; 24 h): about 30%

[Cl-].[K+] [KCl]
average moving velocity (anterograde direction) [1, 7]: drastically reduced | mitochondrial moving velocity (distance/time moving) [1, 7]: unaltered; also recorded: did not affect | net moving distance (anterograde direction) [1, 7]: drastically reduced | retrograde motility [1, 7]: No significant changes | mitochondrial index reduced ([1]; repetitive depolarizations with KCl (4×, 90 mM)): 22.5%

NC1=N[C@H](O)[C@H]2[C@H]3O[C@]4(O)O[C@@H]([C@@H](O)[C@@]2(N1)[C@@H]4O)[C@]3(O)CO [TTX, tetrodotoxin]
differences in mitochondrial dynamics between forms of apoE in the presence of TTX [1]: No significant differences | mitochondrial dynamics [1]: increased | mitochondrial index [1]: without affecting; also recorded: not affected | differences in dendritic spine density between forms of apoE in the presence of TTX [2]: No significant differences

COCCOC(=O)C1=C(C)NC(C)=C(C(=O)OC(C)C)C1c1cccc([N+](=O)[O-])c1 (stereo not drawn) [nimodipine]
mitochondrial motility increased ([1]; 24 h): about 30%

L279Q: full-length WT apoE4 with single mutation L279Q
neurotoxicity (cell survival, MTT assay) [3]: as neurotoxic as apoE4(1-272)

Q284A: full-length WT apoE4 with single mutation Q284A
neurotoxicity (cell survival, MTT assay) [3]: as neurotoxic as apoE4(1-272)

aa241-272 of apoE4: lipid binding region alone of apoE4 (AKLEEQAQQIRLQAEAFQARLKSWFEPLVEDM; UniProt P02649 259-290, looked up, fragment)
neurotoxicity (cell survival, MTT assay) [3]: No neurotoxicity was observed

apoE3: recombinant apolipoprotein E3 isoform; also stably expressed in PC12 cells
reduction of percentage of motile mitochondria in response to neuronal activation [1]: 58±6% | average length of mitochondria ([1]; exogenous apoE 7.5 μg/ml, 24 h): did not | mitochondrial motility / dynamics overall ([1]; exogenous apoE 7.5 μg/ml, 24 h): not affected | mitochondrial motility / dynamics overall ([1]; exogenous apoE 7.5 μg/ml, 24 h, listed as ApoE3): did not alter mitochondrial dynamics significantly | density of dendritic spines increased vs controls [4]: 11±4% | percentage of motile mitochondria reduced [5]: unaffected | density of dendritic spines increased vs controls ([2]; apoE 7.5 μg/ml, 24 h): 20±6%

apoE4: full-length human apolipoprotein E4 (SEQ ID NO:1); expressed from cDNA or added as recombinant protein
number of mitochondria in dendritic spines [6]: many fewer mitochondria | reduction of percentage of motile mitochondria in response to neuronal activation [1]: 30% | average length of mitochondria ([1]; exogenous apoE 7.5 μg/ml, 24 h): significantly reduced | retrograde velocity ([1]; exogenous apoE 7.5 μg/ml, 24 h): unaffected | density of dendritic spines decreased vs controls [4]: 19±5% | density of dendritic spines reduced compared with apoE3 [4]: 28±4% | spinal density reduced in response to neuronal activation, compared to controls ([2]; apoE 7.5 μg/ml 24 h, repetitive KCl depolarization): 48±11% | density of dendritic spines decreased vs controls ([2]; apoE 7.5 μg/ml, 24 h): 13±5% | density of dendritic spines reduced compared with apoE3 ([2]; apoE 7.5 μg/ml, 24 h): 27±5%
